The source of these data is patent publication US7264314B2, “Adrenocorticotropic hormone analogs and related methods” (priority 2004, dated 2007).

No end group written: not given here.

The subject of experiment [1] is corticosterone production by explanted mouse adrenal halves. In words: in vitro Serum-free Adrenal Inhibition Assay. The format is cell-based. On the procedure: A series of separate in vitro Serum-Free Adrenal Corticosteroid Inhibition Assay were performed to identify ACTH analogs that inhibit ACTH-induced adrenal hormone production in vitro. The concentration of corticosterone was measured according to the procedure of Example 4 in a serum-free culture medium containing explanted adrenal membrane and unmodified ACTH, AT814 ACTH analog (SEQ ID NO:20), or a combination of ACTH and AT814 at 100 ng/mL each. […] Corticosterone levels were taken at 2.0 hours after the adrenal membrane was placed in the serum free M199 medium, and each corticosterone level in Table 5 is an average of five samples.
The in vitro Serum-free Adrenal Inhibition Assay was performed according the following method. First, adrenals were removed from mice, dissected free of fat, and cut in half. See Costa, J L, et al., “Mutational analysis of evolutionarily conserved ACTH residues,” Gen Comp Endocrinol. 136:12–16 (2004); and Weber, M M, et al., “Postnatal overexpression of insulin-like growth factor II in transgenic mice is associated with adrenocortical hyperplasia and enhanced steroidogenesis,” Endocrinology 140:1537–1543 (1999), incorporated herein by reference.
Second, each adrenal half was placed into an individual well of a 4-well dish, one dish per mouse. Adrenal halves were incubated at 5% CO2, 37° C., in 0.5 ml serum-free medium (M199; Invitrogen) for 30 minutes to equilibrate.
Third, medium was removed and replaced by 0.5 ml M199 containing ACTH, AT814, or both, at 100 ng/ml each; controls had no peptides added.
Fourth, after 2 hours of incubation, the medium was removed, pooled for all four halves from each mouse, and assayed by corticosterone using standard RIA methods. corticosterone was determined by competitive radioimmunoassay (^125I RIA kit; ICN, Costa Mesa, Calif.) according to the manufacturer's recommendations. One microliter of serum was used per assay sample. Samples were run in duplicates.

Experiment [2] concerns the target T1, adrenal ACTH receptors such as MC-2R (explanted adrenal membrane) (Mus musculus, UniProt Q64326).
T1 construct: the adrenal halves were macerated or otherwise dissociated using Dounce Homogenizer to form a membrane fraction; from tissue; host or cells: membrane fraction of explanted mouse adrenal glands
Briefly: in vitro Serum-free Adrenal Competitive Binding Assay. Also noted: species or system mice. As to conditions: cold peptide at 10 nM, 100 nM, 1000 nM. The source says:
ACTH analog compounds that bind to adrenal membrane with a greater affinity than endogenous unmodified ACTH, and are able to displace unmodified ACTH can be identified using an in vitro Serum-free Adrenal Competitive Binding Assay (Example 3). […] A higher CPM level indicates the presence of greater amounts of the radiolabelled compound. […] Column 220 indicates the level of radio-labeled unmodified mACTH(1–24) detected after combining the explanted adrenal membrane with only the radio-labeled mACTH(1–24) for 2 hours.(no competitive binding). Columns 230, 240, and 250 show the results of competitive binding assays for binding of non-radio-labeled (“cold”) mACTH(1–24) to displace the radio-labeled mACTH(1–24) from the explanted adrenal membrane (measured in column 220) by competitive binding to receptors such as MC-2R on the adrenal membrane. […]
ACTH analogs with the ability to bind adrenal receptors with a greater affinity than compounds with known adrenal binding activity (preferably ACTH) can also be identified by performing an in vitro Adrenal Competitive Binding Assay, whereby measurement of the reduction in the amount of the radiolabelled adrenal-binding compound (e.g., ACTH) is measured at various concentrations of non-radio-labeled ACTH analog test compound in a medium containing explanted adrenal membrane. […]

T1 sequence (Q64326 whole entry): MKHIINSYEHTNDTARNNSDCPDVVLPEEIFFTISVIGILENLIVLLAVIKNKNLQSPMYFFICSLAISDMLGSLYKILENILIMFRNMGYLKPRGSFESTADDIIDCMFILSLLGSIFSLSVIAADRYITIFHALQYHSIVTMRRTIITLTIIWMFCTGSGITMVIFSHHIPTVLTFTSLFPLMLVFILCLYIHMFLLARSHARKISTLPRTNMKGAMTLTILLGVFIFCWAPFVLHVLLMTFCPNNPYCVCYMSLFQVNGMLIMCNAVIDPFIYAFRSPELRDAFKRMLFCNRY
T1 sequence (Q9D159 whole entry partner): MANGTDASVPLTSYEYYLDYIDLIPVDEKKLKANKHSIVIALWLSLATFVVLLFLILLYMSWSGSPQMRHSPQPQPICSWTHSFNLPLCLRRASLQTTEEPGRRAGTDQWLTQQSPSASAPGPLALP

For “N-Ser^1-Tyr-Ser-Met-Glu^5-His-Phe-Arg-Trp-Gly^10-Lys-Pro-Val-Gly-Lys^15-Arg-Ala-Ala-Trp-Val^20-Lys-Val-Tyr-Pro-Ac (SYSMEHFRWGKPVGKRAAWVKVYP; not fully specified (C-terminus); printed as N-Ser1-Tyr-Ser-Met-Glu5-His-Phe-Arg-Trp-Gly10-Lys-Pro-Val-Gly-Lys15-Arg-Ala-Ala-Trp-Val20-Lys-Val-Tyr-Pro-Ac) [AT814]”, the “corticosterone induction relative to ACTH (FIG. 4)” value in experiment [1] (AT814 alone) is “negligible amount of corticosterone induction”. Further, in experiment [1] (equal amounts of AT814 and unmodified ACTH), the “reduction of corticosterone induction compared to unmodified ACTH alone” value is on record as “about 65%”. Besides, in experiment [1] (peptide alone, 100 ng/mL, 2 hours after addition, average of five samples, listed as (KKRRP15-19KRAAW) mACTH(1–24)), the “corticosterone level in M199 serum-free medium” value is reported as “about 290 mg/mL”. In experiment [2], the “displacement of radio-labeled mACTH(1–24) from explanted adrenal membrane (CPM)” value was “displacement of the radio-labeled mACTH(1–24)”.
